{"source": "patent US12628822B2", "about": "“Plant pathogen defence elicitors” (UNIVERSITÉ LIBRE DE BRUXELLES, priority 2020, dated 2026)", "tested_on": "Botrytis cinerea", "assay": "B. cinerea inoculation of Arabidopsis leaves: necrotic lesion area and in planta growth", "format": "in vivo", "experimental": "For “in planta” growth test of Botrytis cinerea and histochemical assays, five-week-old Col-0 plants were germinated in soil and grown in controlled chamber ( 8/16 h light/dark at 22/20° C. day/night) with a relative humidity equal to 70%. Treatments were performed by applying 40-50 μl of fresh-prepared and filtered solution per leaf.\nBotrytis cinerea (strain B05.10, from the INRA/IJPB Institute, Versailles, France) was grown on potato dextrose agar medium at 21° C., with a photoperiod of 12 h light/12 h dark. Leaves were inoculated with two 5-μL droplets of B. cinerea spores (5×10^5 spores ml-1). At the indicated time points, genomic DNA from whole leaves was extracted following the modified protocol of Edwards et al. (A simple and rapid method for the preparation of plant genomic DNA for PCR analysis. Nucl. Acid. Res. 1991, vol. 19, 13491991) and fungal biomass was quantified as described by Gachon and Saindrenan (Real-time PCR monitoring of fungal development in Arabidopsis thaliana infected by Alternaria brassicicola and Botrytis cinerea. Plant Physiol Biochem. 2004, vol. 42, 367-371).\nThree days after fungus inoculation, the areas of the developing necrotic lesions were analysed by ImageJ software and the B. cinerea “in planta” growth was evaluated through qPCR. […]"}
{"smiles": "OC[C@H]1O[C@@H](O[C@H]2[C@H](O)[C@@H](O)[C@H](O)O[C@@H]2CO)[C@H](O)[C@@H](O)[C@@H]1O", "note": "[Cellobiose, β-D-glucopyranosyl(1→4)D-glucopyranose]", "values": [{"measurement": "reduction of average sizes of necrotic lesions compared with untreated leaves", "setting": "100 μM pre-treatment 24 h before inoculation, three days after inoculation", "value": "a little protection"}, {"measurement": "reduction of B. cinerea in planta growth (fungus biomass, qPCR)", "setting": "100 μM pre-treatment, 3 days after infection", "value": "slight reduction"}]}
